The test system of data set [1] is human foreskin fibroblasts (HFF-1). Description: Cell viability, Alamar Blue assay. It is filed as cell-based. The note with it: 72 h incubation, error SEM n = 2, listed as FA(1), read-out: IC50, Mammalian Toxicity in HFF-1. The method, then:
Cell Culture. HFF-1 cells were obtained from ATCC. HFF-1 cells were grown in DMEM with 15% fetal bovine serum (Gemini Benchmark, Cat #100-106), 100 U/mL penicillin, and 100 μg/mL streptomycin. All cells were cultured at 37° C. in a 5% CO2 environment. Media was prepared by the University of Illinois School of Chemical Sciences Cell Media Facility.
Cell Viability. Cells were harvested, seeded in a 96 well-plate and allowed to adhere. Cells were treated with investigational compounds in DMSO (1% final concentration). Cells were incubated for 72 h before viability was assessed by the Alamar Blue Assay. Raptinal ([…]) was used as a dead control.

For data set [2], the system named is clinical isolates of S. aureus. The note with it: cited from earlier work.
The nature of another data set: Mouse MTD / tolerability. The note with it: mice. The method, then: The protocol was approved by the IACUC at the University of Illinois at Urbana-Champaign (Protocol Number: 16144 and 19181). In these studies, 10- to 12-week-old female C57BL/6 mice purchased from Charles River were used. The maximum tolerated dose (MTD) of single compound was determined first. […] All the mice were monitored for signs of toxicity for 2 weeks. For multiple doses, the compound was given by daily IP for 4 consecutive days, and mice were monitored for signs of toxicity for 1 month. MTD was the highest dosage with acceptable toxicity (e.g., <20% weight loss).

Another data set has as its system S. aureus 29213. In words: MIC shift with 50% human serum. It is filed as cell-based. The settings on record: S. aureus 29213, 50% human serum vs none. The method, then: Antimicrobial Susceptibility Tests. Susceptibility testing was performed in biological triplicate, using the micro-dilution broth method as outlined by the Clinical and Laboratory Standards Institute. […] Human serum (Ultrafiltrate, unspecified gender, 30K Dalton membrane filtered) was purchased from BioIVT (Hicksville, NY).

The next data set concerns S. aureus ATCC 29213. Description: Resistance frequency, large inoculum method. It is filed as cell-based. The method, then:
Selection of Resistant Mutants. Resistant mutants were selected via the large inoculum method. Briefly, S. aureus ATCC 29213 (1×10^9 CFU) were plated on 100 mm plates of LB agar containing 4, 2, 1, 0.5, and 0.25 μg/mL.

Read-outs that look alike come from different tables or passages of the source.

Consider two molecules from patent publication US20240109934A1, “ANTIBIOTICS WITH IMPROVED DRUG RESISTANCE PROFILE” (priority 2021, published 2024).

In the case of `CC(=O)O[C@H]1C[C@@]2(C)[C@@H](C[C@@H](O)[C@H]3[C@@]4(C)CC[C@@H](O)[C@@H](C)[C@@H]4CC[C@@]32C)/C1=C(\CCC=C(C)C)C(=O)O` [FA, Fusidic acid], the half-maximal inhibitory concentration (IC50) in data set [1] amounted to 146 ± 11 µM. The “S. aureus strains susceptible” value in data set [2] (United States, analysis conducted in 2011) is given as 99.7%. The MIC range in data set [2] (staphylococcal clinical isolates that carry the fusC gene) is 2 to 64 µg/mL; in data set [2] (strains that possess the fusB gene) it was 4 to 1024 µg/mL.
Regarding `CC(=O)O[C@H]1C[C@@]2(C)[C@@H](C[C@@H](O)[C@H]3[C@@]4(C)CC[C@@H](O)[C@@H](C)[C@@H]4CC[C@@]32C)/C1=C(\CCC=C1CCCC1)C(=O)O` [FA-CP, (Z)-2-((3R,4S,5S,8S,9S,10S,11R,13R,14S,16S)-16-acetoxy-3,11-dihydroxy-4,8,10,14-tetramethylhexadecahydro-17H-cyclopenta[a]phenanthren-17-ylidene)-5-cyclopentylidenepentanoic acid], the Tolerability entry in “Mouse MTD / tolerability” (50 mg/kg IP once-a-day for 4 consecutive days) is “well tolerated”; in “Mouse MTD / tolerability” (single dose of 50 mg/kg, IP injection), “well tolerated”. Besides, in the data set with S. aureus 29213, the “Fold Change Increase in MIC with 50% Human Serum” value came to 8X. Further, the “Resistance frequency relative to FA” value in the data set on S. aureus ATCC 29213 (at 2× and 32× the MIC) was “modest improvement in resistance frequency”; in the data set on S. aureus ATCC 29213 (head-to-head with FA, 2×-32× the MIC), “improvement in resistance frequency relative to FA”.
